From patent US20250136649A1, “HONEY TRUFFLE SWEETENER (HTS) VARIANTS” (MYCOTECHNOLOGY, INC., priority 2023, published 2025)
Like-named read-outs stand apart in the source and are kept apart here.

How the values were obtained:
sweet taste response = experiment: Concentration-response functions for sweet taste (Opertech Bio); type: in vivo; conditions: for Relative to Sucrose (mM): equivalency to sucrose on a molar basis; for Relative to Sucrose (mg/ml): equivalency to sucrose on a weight basis; for EC50: half-maximal sweet taste response
Description: Each data point in the curves for mycodulcein, aspartame, thaumatin, rebaudioside A was calculated as the average across 32 replicates and averaged across 16 replicates for the sucrose curve; error bars are SEM. Points for water and sucrose controls were similarly calculated as the average across 128 and 64 replicates, respectively. Curves were fit by non-linear regression.
Opertech Bio (Philadelphia, PA) performed a quantitative characterization of the concentration-dependence of the taste properties of the purified his-tagged mycodulcein HTS (SEQ ID NO:141 with His-tag, SEQ ID NO:142) obtained from E. coli as described in Example 5 and purified as described in Example 4. The sweet-taste potency and relative efficacy of mycodulcein (HTS) was compared with sucrose and with other sweeteners thaumatin, rebaudioside A, and aspartame. Control standards were solutions of 200 mM sucrose, 100 mM NaCl, 0.5 mM quinine, and 10 mM citric acid. […] Each data point in the curves for mycodulcein, aspartame, thaumatin, and rebaudioside A was calculated as the average across 32 replicates and averaged across 16 replicates for the sucrose curve; error bars are SEM. Points for water and sucrose controls were similarly calculated as the average across 128 and 64 replicates, respectively. Curves were fit by non-linear regression.
The concentrations that elicit half-maximal sweet taste response (EC50s, or potencies) were derived from the nonlinear regression. […] Also provided are the equivalencies to sucrose on a molar basis and on a weight basis.

sweet taste = conditions: cited from earlier work
sweet sensation = experiment: CATA time intensity of the sweet sensation in water; type: in vivo, human
Description: Evaluation of thaumatin, sucrose, and his-tagged mycodulcein (HTS) was carried out using a CATA (click all that apply) time intensity of the sweet sensation of named analytes in water at 0.045 mg/mL for proteins and 10% sucrose. Methodology: Time Intensity Technique; Data collection software: EyeQuestion, responses recorded every 2.57 seconds; Scaling Method: a 15-point sweet scale, e.g., score 5=5% sucrose, score 10=10% sucrose; Evaluation Protocol: small volume sip, tilt and spit test. There were 3-6 panelists and 2 replicates. All samples were blinded and presented with randomized 3-digit codes. Training Strategies: An intense training on sweet scale over 6 weeks on 15-point sweet scale to confidently assign sweet values. Due to unique sweet behavioral patterns, it is necessary to train time intensity principles over 3 weeks. Samples were tasted with a stopwatch to note times and help reach a consensus. # of Panelists: 3-6, # of replications: 2. All samples were blinded and presented with randomized 3-digit codes. Statistical analysis: due to the small # of panelists, a statistical analysis cannot be performed.

perception of the flavor = experiment: Tasting of HTS flavor modifying compositions in a mock beverage matrix; type: in vivo, human; conditions: pH about 3, 0.25% w/w lemon/lime flavor, sucralose 0.0387% w/w, HTS 0.004 mg/mL
Description: HTS (0.004 mg/mL) and sucrose (10% w/w concentration) were added to a mock beverage matrix (citric acid, a flavor and carbonation). […] HTS and sucrose were added to hit a target of 10% w/w sucrose equivalent sweetness. The HTS/sucrose mixture was compared to an unsweetened control, an unsweetened control+0.004 mg/mL HTS, and a sucrose sweetened control (10% w/w concentration of sucrose).
HTS (0.004 mg/mL) and erythritol (13.3% w/w concentration) were added to a mock beverage matrix (citric acid, a flavor, and carbonation). […] HTS and erythritol were added to hit a target of 10% w/w sucrose equivalent sweetness. The HTS/erythritol mixture was compared to an unsweetened control, an unsweetened control+0.004 mg/mL HTS, and an erythritol sweetened control (13.3% w/w concentration).
HTS (0.004 mg/mL) and sucralose (0.0387% w/w concentration) were added to a mock beverage matrix (citric acid, a flavor, and carbonation). […] HTS and sucralose were added to hit a target of 10% w/w sucrose equivalent sweetness. The HTS/sucralose mixture was compared to an unsweetened control, an unsweetened control+0.004 mg/mL HTS, and a sucralose sweetened control (0.0387% w/w concentration).
HTS (0.004 mg/mL) and stevia (0.0395% w/w concentration) were added to a mock beverage matrix (citric acid, a flavor, and carbonation). […] HTS and stevia were added to hit a target of 10% w/w sucrose equivalent sweetness. […]

[1] = test system: sweetness and flavor perception; experiment: Tasting of HTS sweetener blends in citric acid solution, lemon/lime soda, almond milk, chocolate spread; type: in vivo, human
Description: Sucrose is the standard for sweetness intensity perception in the food and beverage industry. […] With regard to the following Examples 18-38, sucrose equivalent (SE) values of non-sucrose sweeteners were calculated from Dubois et al. (1991) and cross referenced with other studies (Wee, M., Tan, V., & Forde, C. (2018). A Comparison of Psychophysical Dose-Response Behaviour across 16 Sweeteners. Nutrients, 10 (11), 1632).
DE Walters, FT Orthoefer, GE DuBois, pp. 261-276. Washington, DC: Am. Chem. Soc).
An HTS sweetness concentration response curve was developed. These values were used to determine approximate sucrose equivalents for the following blending examples (Examples 18-37).
HTS ((0.0 mg/mL, 0.007 mg/mL, 0.015 mg/mL and 0.035 mg/mL) and sucrose (8% w/w, 6% w/w, 4% w/w, and 2% w/w (respectively)) were added to a citric acid solution. The sweetener mixture was compared to a control with only sucrose added to the matrix. The sweetener mix was expected to be as sweet as or sweeter than the sucrose control for this matrix. Of total perceived sweetness intensity in each of the experimental samples in Table 11, 75% comes from sucrose and 25% comes from HTS, 50% comes from sucrose and 50% comes from HTS, 25% comes from sucrose and 75% comes from HTS, respectively.
HTS ((0.0 mg/mL, 0.008 mg/mL, 0.023 mg/mL and 0.064 mg/mL) and sucrose (10% w/w, 7.5% w/w, 5% w/w, and 2.5% w/w (respectively)) were added to a lemon/lime soda. The sweetener mixture was compared to a control with only sucrose added to the matrix. The sweetener mix was expected to be as sweet as or sweeter than the sucrose control for this matrix. Of total perceived sweetness intensity in each of the experimental samples in Table 12, 75% comes from sucrose and 25% comes from HTS, 50% comes from sucrose and 50% comes from HTS, 25% comes from sucrose and 75% comes from HTS, respectively.
HTS ((0.0 mg/mL, 0.005 mg/mL, 0.007 mg/mL and 0.010 mg/mL) and sucrose (4% w/w, 3.0% w/w, 2% w/w, and 1.0% w/w (respectively)) were added to an unsweetened almond milk. The sweetener mixture was compared to a control with only sucrose added to the matrix. The sweetener mix was expected to be as sweet as or sweeter than the control for this matrix. Of total perceived sweetness intensity in each of the experimental samples in Table 13, 75% comes from sucrose and 25% comes from HTS, 50% comes from sucrose and 50% comes from HTS, 25% comes from sucrose and 75% comes from HTS, respectively.
HTS ((0.0 mg/mL, 0.008 mg/mL, 0.023 mg/mL and 0.064 mg/mL) and sucrose (45% w/w, 33.8% w/w, 23% w/w, and 11.3% w/w (respectively)) were added to a chocolate spread. The sweetener mixture was compared to a control with only sucrose added to the matrix. The sweetener mix was expected to be as sweet as or sweeter than the control for this matrix. Of total perceived sweetness intensity in each of the experimental samples in Table 14, 75% comes from sucrose and 25% comes from HTS, 50% comes from sucrose and 50% comes from HTS, 25% comes from sucrose and 75% comes from HTS, respectively.
HTS ((0.0 mg/mL, 0.007 mg/mL, 0.015 mg/mL and 0.035 mg/mL) and erythritol (11.43% w/w, 8.57% w/w, 5.71% w/w, and 2.86% w/w (respectively)) were added to a citric acid solution. The sweetener mixture was compared to a control with only erythritol added to the matrix. The sweetener mix was expected to be as sweet as or sweeter than the control for this matrix. Of total perceived sweetness intensity in each of the experimental samples in Table 15, 75% comes from erythritol and 25% comes from HTS, 50% comes from erythritol and 50% comes from HTS, 25% comes from erythritol and 75% comes from HTS, respectively.

[2] = nonlinear regression, read-out: EC50 (molar units)

thaumatin [THN]
Relative to Sucrose (mM) (sweet taste response): 120000 | Relative to Sucrose (mg/ml) (sweet taste response): 1865 | EC50 (sweet taste response): 6.6 µg/mL | EC50 (sweet taste response; [2]): 0.3 µM | times sweeter than sucrose on a gram basis (sweet taste; background): 3000 times | intensity when sucrose reaches threshold level (sweet sensation; 0.045 mg/mL in water): low-moderate intensity | slope of time intensity curve (sweet sensation; 0.045 mg/mL in water vs 10% sucrose, longer peak time and more gradual/longer decline): flatter slope | maximum intensity (Imax) higher than sucrose (sweet sensation; 0.045 mg/mL protein in water vs 10% sucrose): approximately 1 point on the 15 point scale | potency, sweeter than sucrose on a molar basis (sweet sensation; time intensity experiment): approximately 120,000 × | potency, sweeter than sucrose on a weight basis (sweet sensation; time intensity experiment): ~3000 ×

OC[C@H]1O[C@H](O[C@]2(CCl)O[C@H](CCl)[C@@H](O)[C@@H]2O)[C@H](O)[C@@H](O)[C@H]1Cl [Sucralose, sucralose]
Observations (perception of the flavor): Sweet linger, little flavor carry over | Observations ([1]; almond milk, sucralose w/w / HTS mg/mL: control 0.0053%/0.0, 75/25 0.0037%/0.005, 50/50 0.0023%/0.007, 25/75 0.0011%/0.010): Pleasantly sweetened almond milk. Little | Observations ([1]; chocolate spread, sucralose w/w / HTS mg/mL: control 0.0387%/0.0, 75/25 0.0247%/0.008, 50/50 0.0096%/0.023, 25/75 0.0030%/0.064): Reduced cocoa flavor intensity compared to sucrose | Observations ([1]; citric acid solution, sucralose w/w / HTS mg/mL: control 0.0170%/0.0, 75/25 0.0100%/0.007, 50/50 0.0053%/0.015, 25/75 0.0023%/0.035): Intense initial sweetness that overpowers acidity. | Observations ([1]; lemon/lime soda, sucralose w/w / HTS mg/mL: control 0.0387%/0.0, 75/25 0.0247%/0.008, 50/50 0.0096%/0.023, 25/75 0.0030%/0.064): Intense initial sourness. Strong sweet aftertaste.

O=C(CO)C(O)C(O)C(O)CO (centres unmarked) [Allulose, allulose]
potency curve multiplier relative to sucrose (sweet taste; linear potency curve similar to sucrose (DuBois 1991)): 0.7 × | Observations ([1]; lemon/lime soda, allulose w/w / HTS mg/mL: control 14.3%/0.0, 50/50 7.14%/0.023): Muted citrus flavor and sweetness intensity.

monellin
times sweeter than sucrose on a molar basis (sweet taste; background): 100,000 times

OC[C@H]1O[C@@](CO)(O[C@H]2O[C@H](CO)[C@@H](O)[C@H](O)[C@H]2O)[C@@H](O)[C@@H]1O [SUC, sucrose]
Observations ([1]; almond milk, sucrose w/w / HTS mg/mL: control 4%/0.0, 75/25 3.0%/0.005, 50/50 2%/0.007, 25/75 1.0%/0.010): Pleasantly sweetened almond milk, creamy | Observations ([1]; citric acid solution, sucrose w/w / HTS mg/mL: control 8%/0.0, 75/25 6%/0.007, 50/50 4%/0.015, 25/75 2%/0.035): Reminiscent of sweet dessert and ice | Observations ([1]; lemon/lime soda, sucrose w/w / HTS mg/mL: control 10%/0.0, 75/25 7.5%/0.008, 50/50 5%/0.023, 25/75 2.5%/0.064): Good, sweet to sour balance and pleasant

brazzein (QDKCKKVYENYPVSKCQLANQCNYDCKLDKHARSGECFYDEKRNLQCICDYCEY; UniProt P56552 1-54, looked up) [sweet protein]
times sweeter than sucrose on a gram basis (sweet taste; background): 500 times

C=C1C[C@@]23CC[C@H]4[C@@](C)(CCC[C@@]4(C)C(=O)O[C@@H]4O[C@H](CO)[C@@H](O)[C@H](O)[C@H]4O)[C@@H]2CC[C@]1(O[C@@H]1O[C@H](CO)[C@@H](O)[C@H](O[C@@H]2O[C@H](CO)[C@@H](O)[C@H](O)[C@H]2O)[C@H]1O[C@@H]1O[C@H](CO)[C@@H](O)[C@H](O)[C@H]1O)C3 [REB, rebaudioside A]
Relative to Sucrose (mM) (sweet taste response): 857 | Relative to Sucrose (mg/ml) (sweet taste response): 300 | EC50 (sweet taste response): 41.1 µg/mL | EC50 (sweet taste response; [2]): 42 µM
